What all share (format): cell-based
For one assay, the target named is AXL (Homo sapiens (Human), UniProt P30530). The experiment in a line: AXL autophosphorylation ELISA in A-172 cells. Conditions: cellular, Gas6-stimulated, phospho-AXL ELISA. How it is done: A-172 glioblastoma cells (ATCC #CRL-1620) were seeded at 2.5×10^5 cells/well onto 24-well plates (Greiner #662165), in […] (Thermo Fisher #11995-040) containing 10% FBS (Thermo Fisher #26140-079), […] (Thermo Fisher #11140-050), […] (Thermo Fisher #35050-061), and 1% Penicillin Streptomycin (Thermo Fisher #15140-122). A-172 cells were incubated at 37° C., […] for 24 hand then starved for 24 h in serum-free medium. Test compounds were serially diluted to produce an 8-point dose curve in fresh serum-free medium to a final concentration of 0.3% DMSO (vehicle) and added to the cells and incubated for 1 h. Cells were then stimulated with 1 μg/mL recombinant human Gas6 (R&D Systems #885-GSB-500) for 15 min, washed with cold PBS, and immediately lysed with 150 μL of cold 1× lysis buffer [20 mM Tris, 137 mM sodium chloride, 2 mM EDTA, 10% glycerol, 1% NP-40 alternative, 1 mM activated sodium orthovanadate, 1 mM PefaBloc SC (Sigma-Aldrich #11429868001), protease/phosphatase inhibitor tablet (Thermo Fisher #A32959)]. Lysates were collected and 100 μL/well added into the human phospho-AXL DuoSet IC ELISA (R&D Systems #DYC2228-2). Assay was performed according to manufacturer's instructions and sample phospho-AXL concentrations were extrapolated using human phospho-AXL control (R&D Systems #841645) as a standard. Positive control wells (100% activity) contained Gas6-stimulated, DMSO-treated cell lysates. Negative control wells (0% activity) contained Gas6-stimulated, reference inhibitor-treated cell lysates. IC50 values were calculated by nonlinear regression analysis using a 4-parameter logistic curve fit in ActivityBase XE (IDBS).
Sequence of AXL (P30530 26-894): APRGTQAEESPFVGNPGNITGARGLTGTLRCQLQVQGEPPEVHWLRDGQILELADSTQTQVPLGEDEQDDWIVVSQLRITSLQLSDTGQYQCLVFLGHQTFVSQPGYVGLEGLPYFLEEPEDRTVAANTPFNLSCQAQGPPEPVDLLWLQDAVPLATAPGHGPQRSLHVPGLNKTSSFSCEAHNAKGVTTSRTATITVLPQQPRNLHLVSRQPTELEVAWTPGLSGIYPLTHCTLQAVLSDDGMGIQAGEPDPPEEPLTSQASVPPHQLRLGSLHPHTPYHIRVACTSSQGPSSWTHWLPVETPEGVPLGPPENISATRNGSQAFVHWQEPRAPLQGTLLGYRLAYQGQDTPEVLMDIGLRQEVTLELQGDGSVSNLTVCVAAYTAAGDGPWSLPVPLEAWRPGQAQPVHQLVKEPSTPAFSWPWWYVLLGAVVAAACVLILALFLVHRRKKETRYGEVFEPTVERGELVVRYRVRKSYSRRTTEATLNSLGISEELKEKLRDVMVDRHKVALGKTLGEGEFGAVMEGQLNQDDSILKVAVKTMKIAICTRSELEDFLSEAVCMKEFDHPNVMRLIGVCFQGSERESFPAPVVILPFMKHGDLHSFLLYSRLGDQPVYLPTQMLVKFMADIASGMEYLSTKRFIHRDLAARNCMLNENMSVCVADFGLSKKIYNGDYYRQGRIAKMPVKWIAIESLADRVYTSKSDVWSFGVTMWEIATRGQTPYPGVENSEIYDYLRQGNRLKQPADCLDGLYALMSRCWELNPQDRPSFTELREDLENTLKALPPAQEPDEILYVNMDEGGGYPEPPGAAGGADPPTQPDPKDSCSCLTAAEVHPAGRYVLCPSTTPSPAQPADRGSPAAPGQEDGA
A general note: ELISA stands for enzyme-linked immunosorbent assay.

The next assay addresses Mer (Homo sapiens (Human), UniProt Q12866). The experiment in a line: Mer autophosphorylation ELISA in transient transfected 293A cells. As to conditions: cellular, MERTK-transfected 293A cells, phospho-Mer ELISA. As for the experimental part:
293A cells (Thermo Fisher #R70507) were seeded at 1.5×10^6 cells/well onto 100 mm dish (Greiner #664169), in DMEM (Thermo Fisher #11995-040) containing 10% FBS (Thermo Fisher #26140-079), 1% MEM NEAA (Thermo Fisher #11140-050), 1% GlutaMax (Thermo Fisher #35050-061), and 1% Penicillin Streptomycin (Thermo Fisher #15140-122). 293A cells were incubated at 37° C., 5% CO2 for 24 h and then transfected with 6 μg MERTK DNA (Genecopoeia #EX-Z8208-M02) using TransIT LT1 transfection reagent (Mirus-Bio #MIR2305). After 24 h incubation, the transfected 293A cells were seeded at 1×10^5 cells/well onto 96-well plates (Corning #3904) in DMEM growth medium overnight. Test compounds were serially diluted to produce an 8-point dose curve in fresh serum-free medium to a final concentration of 0.3% DMSO (vehicle) and added to the cells and incubated for 1 h. Cells were then immediately lysed with 150 μL of cold 1× lysis buffer [20 mM Tris, 137 mM sodium chloride, 2 mM EDTA, 10% glycerol, 1% NP-40 alternative, 1 mM activated sodium orthovanadate, 1 mM PefaBloc SC (Sigma-Aldrich #11429868001), protease/phosphatase inhibitor tablet (Thermo Fisher #A32959)]. Lysates were clarified by centrifugation and 50 μL/well added into the human phospho-Mer DuoSet IC ELISA (R&D Systems #DYC2579-2). Assay was performed according to manufacturer's instructions and sample phospho-Mer concentrations were extrapolated using human phospho-Mer control (R&D Systems #841793) as a standard. Positive control wells (100% activity) contained DMSO-treated cell lysates. Negative control wells (0% activity) contained reference inhibitor-treated cell lysates. IC50 values were calculated by nonlinear regression analysis using a 4-parameter logistic curve fit in ActivityBase XE (IDBS).

Another assay addresses KDR (Homo sapiens (Human), UniProt P35968). The experiment in a line: KDR autophosphorylation ELISA in HUVEC cells. As to conditions: cellular, VEGF165-stimulated, phospho-KDR ELISA. How it is done: Human umbilical vein endothelial cells or HUVEC (Lonza #C2519A) were seeded at 2×10^4 cells/well onto 96-well plates (Corning #3904), in EGM-2 growth medium (Lonza #CC-3162) containing 1% Penicillin Streptomycin (Thermo Fisher #15140-122). HUVEC cells were incubated at 37° C., 5% CO2 for 24 h and then starved for 24 h in serum-free EBM-2 basal medium (Lonza #CC-3156) containing 1% Penicillin Streptomycin. Test compounds were serially diluted to produce an 8-point dose curve in fresh serum-free medium to a final concentration of 0.3% DMSO (vehicle) and added to the cells and incubated for 1 h. Cells were then stimulated with 100 ng/mL recombinant human VEGF165 (R&D Systems #293-VE-500) for 5 min, washed with cold PBS, and immediately lysed with 130 μL of cold 1× lysis buffer [20 mM Tris, 137 mM sodium chloride, 2 mM EDTA, 10% glycerol, 1% NP-40 alternative, 1 mM activated sodium orthovanadate, 1 mM PefaBloc SC (Sigma-Aldrich #11429868001), protease/phosphatase inhibitor tablet (Thermo Fisher #A32959)]. Lysates were collected and 100 μL/well added into the human phospho-KDR DuoSet IC ELISA (R&D Systems #DYC1766-2). Assay was performed according to manufacturer's instructions and sample phospho-KDR concentrations were extrapolated using human phospho-KDR control (R&D Systems #841421) as a standard. Positive control wells (100% activity) contained VEGF165-stimulated, DMSO-treated cell lysates. Negative control wells (0% activity) contained non-stimulated cell lysates. IC50 values were calculated by nonlinear regression analysis using a 4-parameter logistic curve fit in ActivityBase XE (IDBS).

The target in the next assay is Met (Homo sapiens (Human), UniProt P08581). In words: Met autophosphorylation ELISA in PC-3 cells. Conditions: cellular, HGF-stimulated, phospho-Met ELISA, read-out: c-Met IC50. As for the experimental part:
PC-3 prostate cancer cells (ATCC #CRL-1435) were seeded at 4×10^4 cells/well onto 24-well plates (Greiner #662165), in DMEM (Thermo Fisher #11995-040) containing 10% FBS (Thermo Fisher #26140-079), 1% MEM NEAA (Thermo Fisher #11140-050), 1% GlutaMax (Thermo Fisher #35050-061), and 1% Penicillin Streptomycin (Thermo Fisher #15140-122). PC-3 cells were incubated at 37° C., 5% CO2 for 24 h and then starved for 3 h in serum-free medium. Test compounds were serially diluted to produce an 8-point dose curve in fresh serum-free medium to a final concentration of 0.3% DMSO (vehicle) and added to the cells and incubated for 1 h. Cells were then stimulated with 100 ng/mL recombinant human HGF (R&D Systems #294-HG-250) for 10 min, washed with cold PBS, and immediately lysed with 130 μL of cold 1× lysis buffer [20 mM Tris, 137 mM sodium chloride, 2 mM EDTA, 10% glycerol, 1% NP-40 alternative, 1 mM activated sodium orthovanadate, 1 mM PefaBloc SC (Sigma-Aldrich #11429868001), and protease/phosphatase inhibitor tablet (Thermo Fisher #A32959)]. Lysates were clarified by centrifugation and 100 μL/well added into the PathScan phospho-Met (panTyr) Sandwich ELISA (Cell Signaling Technology #7333). Assay was performed according to manufacturer's instructions. Positive control wells (100% activity) contained HGF-stimulated, DMSO-treated cell lysates. Negative control wells (0% activity) contained HGF-stimulated, reference inhibitor-treated cell lysates. IC50 values were calculated by nonlinear regression analysis using a 4-parameter logistic curve fit in ActivityBase XE (IDBS).

Molecules are shown by their SMILES.

Sequence of Mer (Q12866 21-999): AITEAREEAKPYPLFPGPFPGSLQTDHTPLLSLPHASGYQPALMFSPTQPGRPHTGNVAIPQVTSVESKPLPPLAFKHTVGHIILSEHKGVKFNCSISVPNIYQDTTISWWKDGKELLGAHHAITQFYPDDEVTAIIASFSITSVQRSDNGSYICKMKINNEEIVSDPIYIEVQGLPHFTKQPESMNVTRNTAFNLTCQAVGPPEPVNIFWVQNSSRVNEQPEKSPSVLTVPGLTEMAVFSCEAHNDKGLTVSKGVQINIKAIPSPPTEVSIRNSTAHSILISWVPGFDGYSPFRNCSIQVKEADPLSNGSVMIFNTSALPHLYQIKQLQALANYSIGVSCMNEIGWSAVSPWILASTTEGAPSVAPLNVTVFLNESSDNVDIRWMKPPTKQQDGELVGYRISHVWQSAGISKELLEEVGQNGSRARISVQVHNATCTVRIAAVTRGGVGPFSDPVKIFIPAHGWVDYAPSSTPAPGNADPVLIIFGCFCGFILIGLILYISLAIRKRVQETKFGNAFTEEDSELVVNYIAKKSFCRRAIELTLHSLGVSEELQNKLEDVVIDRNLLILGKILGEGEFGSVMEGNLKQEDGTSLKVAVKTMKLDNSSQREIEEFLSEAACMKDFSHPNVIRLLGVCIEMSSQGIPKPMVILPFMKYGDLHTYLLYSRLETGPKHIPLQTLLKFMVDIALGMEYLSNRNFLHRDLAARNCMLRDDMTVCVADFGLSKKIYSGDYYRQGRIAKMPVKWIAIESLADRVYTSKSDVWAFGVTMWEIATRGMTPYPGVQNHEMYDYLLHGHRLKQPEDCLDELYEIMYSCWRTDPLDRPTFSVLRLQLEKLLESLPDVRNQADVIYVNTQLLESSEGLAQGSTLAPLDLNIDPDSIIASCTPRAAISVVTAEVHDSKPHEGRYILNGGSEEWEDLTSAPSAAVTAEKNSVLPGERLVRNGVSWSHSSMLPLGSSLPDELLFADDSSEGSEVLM
Sequence of KDR (P35968 20-1356): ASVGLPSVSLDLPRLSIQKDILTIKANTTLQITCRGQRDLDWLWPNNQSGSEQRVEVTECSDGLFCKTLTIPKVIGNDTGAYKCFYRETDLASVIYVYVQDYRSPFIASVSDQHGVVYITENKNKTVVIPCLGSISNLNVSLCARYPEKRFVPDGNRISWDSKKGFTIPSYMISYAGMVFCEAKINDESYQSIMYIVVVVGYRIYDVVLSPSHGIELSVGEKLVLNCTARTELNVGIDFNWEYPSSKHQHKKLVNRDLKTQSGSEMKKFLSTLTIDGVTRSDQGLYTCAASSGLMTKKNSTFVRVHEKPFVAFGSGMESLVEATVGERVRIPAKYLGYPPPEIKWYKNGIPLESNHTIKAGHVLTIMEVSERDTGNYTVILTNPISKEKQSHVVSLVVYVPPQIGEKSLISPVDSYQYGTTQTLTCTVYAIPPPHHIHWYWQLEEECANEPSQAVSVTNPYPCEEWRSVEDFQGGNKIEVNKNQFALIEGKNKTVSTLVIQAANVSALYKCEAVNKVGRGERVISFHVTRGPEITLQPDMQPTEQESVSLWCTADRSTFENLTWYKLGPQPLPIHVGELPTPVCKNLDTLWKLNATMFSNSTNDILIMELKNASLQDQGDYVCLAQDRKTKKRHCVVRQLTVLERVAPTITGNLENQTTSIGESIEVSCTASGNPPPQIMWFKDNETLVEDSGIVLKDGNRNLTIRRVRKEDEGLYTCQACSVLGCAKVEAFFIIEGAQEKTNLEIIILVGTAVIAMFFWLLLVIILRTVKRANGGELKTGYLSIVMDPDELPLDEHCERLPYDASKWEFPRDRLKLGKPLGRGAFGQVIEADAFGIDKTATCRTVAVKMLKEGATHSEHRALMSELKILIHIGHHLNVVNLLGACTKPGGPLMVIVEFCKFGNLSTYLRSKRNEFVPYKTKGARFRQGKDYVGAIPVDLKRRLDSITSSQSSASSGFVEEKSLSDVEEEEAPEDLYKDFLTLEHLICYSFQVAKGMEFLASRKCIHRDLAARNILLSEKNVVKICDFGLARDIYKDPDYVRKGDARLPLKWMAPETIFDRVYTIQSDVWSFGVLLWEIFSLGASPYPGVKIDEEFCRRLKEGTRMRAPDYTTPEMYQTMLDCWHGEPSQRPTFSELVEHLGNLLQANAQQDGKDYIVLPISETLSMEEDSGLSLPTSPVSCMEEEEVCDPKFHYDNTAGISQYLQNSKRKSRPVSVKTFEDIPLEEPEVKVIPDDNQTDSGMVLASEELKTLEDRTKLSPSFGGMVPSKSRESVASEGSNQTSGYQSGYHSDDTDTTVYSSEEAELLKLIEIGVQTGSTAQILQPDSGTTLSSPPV
Sequence of Met (P08581 25-1390): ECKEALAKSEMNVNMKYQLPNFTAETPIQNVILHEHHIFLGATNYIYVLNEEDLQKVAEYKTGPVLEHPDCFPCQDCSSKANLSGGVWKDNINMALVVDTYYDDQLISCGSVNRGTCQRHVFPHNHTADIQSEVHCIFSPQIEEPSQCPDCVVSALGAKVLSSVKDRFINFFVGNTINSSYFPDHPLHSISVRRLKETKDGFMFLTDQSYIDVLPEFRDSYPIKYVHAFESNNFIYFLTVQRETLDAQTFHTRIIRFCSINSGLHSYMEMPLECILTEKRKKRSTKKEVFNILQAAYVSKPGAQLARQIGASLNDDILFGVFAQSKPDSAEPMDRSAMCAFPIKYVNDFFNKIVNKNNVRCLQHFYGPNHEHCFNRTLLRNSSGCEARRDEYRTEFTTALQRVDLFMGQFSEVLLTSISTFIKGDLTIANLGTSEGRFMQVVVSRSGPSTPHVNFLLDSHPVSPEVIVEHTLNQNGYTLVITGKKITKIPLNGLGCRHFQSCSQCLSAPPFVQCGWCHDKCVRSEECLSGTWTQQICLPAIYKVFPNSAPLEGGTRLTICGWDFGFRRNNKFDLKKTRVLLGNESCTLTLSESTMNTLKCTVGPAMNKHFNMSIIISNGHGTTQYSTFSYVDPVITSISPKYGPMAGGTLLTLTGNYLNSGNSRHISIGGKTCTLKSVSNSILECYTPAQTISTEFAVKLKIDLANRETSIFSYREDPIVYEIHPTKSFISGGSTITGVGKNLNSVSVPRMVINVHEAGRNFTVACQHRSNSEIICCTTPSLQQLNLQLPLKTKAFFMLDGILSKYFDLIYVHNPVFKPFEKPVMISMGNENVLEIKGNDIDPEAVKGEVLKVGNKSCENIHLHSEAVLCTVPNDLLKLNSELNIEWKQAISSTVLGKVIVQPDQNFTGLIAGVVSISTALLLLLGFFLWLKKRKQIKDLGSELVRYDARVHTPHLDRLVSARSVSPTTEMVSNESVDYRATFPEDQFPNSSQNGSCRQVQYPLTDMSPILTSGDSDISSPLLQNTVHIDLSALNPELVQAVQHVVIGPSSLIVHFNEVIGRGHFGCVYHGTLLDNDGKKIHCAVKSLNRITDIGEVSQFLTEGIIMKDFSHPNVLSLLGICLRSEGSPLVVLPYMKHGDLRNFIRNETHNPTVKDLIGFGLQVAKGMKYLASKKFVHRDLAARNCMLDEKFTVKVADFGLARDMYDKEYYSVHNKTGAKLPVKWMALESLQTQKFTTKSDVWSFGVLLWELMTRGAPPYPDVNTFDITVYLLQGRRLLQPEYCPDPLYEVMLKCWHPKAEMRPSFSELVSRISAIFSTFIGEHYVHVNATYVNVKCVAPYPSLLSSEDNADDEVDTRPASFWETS

As a reminder, the IC50 is the point on the concentration scale where inhibition reaches its midpoint. As to `CCNC(=O)c1cc2c(Oc3ncc(NC(=O)C4(C(=O)Nc5ccc(F)cc5)CC4)cc3Cl)ccnc2cc1OC` [Compound 20, 1-N′-[5-Chloro-6-[6-(ethylcarbamoyl)-7-methoxyquinolin-4-yl]oxypyridin-3-yl]-1-N-(4-fluorophenyl)cyclopropane-1,1-dicarboxamide], the IC50 against AXL is 10 to 100 nM; against Mer, 10 to 100 nM; at KDR it was over 300 nM; on Met it was 10 to 100 nM.
As for `COc1cc2nccc(Oc3ncc(NC(=O)C4(C(=O)Nc5ccc(F)cc5)CC4)cc3F)c2cc1C(N)=O` [Compound 21, 1-N′-[6-(6-Carbamoyl-7-methoxyquinolin-4-yl)oxy-5-fluoropyridin-3-yl]-1-N-(4-fluorophenyl)cyclopropane-1,1-dicarboxamide], the IC50 against AXL was at most 10 nM; on Mer, 10 to 100 nM; on KDR, over 300 nM; on Met it was 10 to 100 nM.
For `CNC(=O)c1cc2c(Oc3ncc(NC(=O)C4(C(=O)Nc5ccc(F)cc5)CC4)cc3F)ccnc2cc1OC` [Compound 22, 1-N′-[5-Fluoro-6-[7-methoxy-6-(methylcarbamoyl)quinolin-4-yl]oxypyridin-3-yl]-1-N-(4-fluorophenyl)cyclopropane-1,1-dicarboxamide], the IC50 at AXL was at most 10 nM; against Mer it was 10 to 100 nM; against KDR, over 300 nM; on Met it was 10 to 100 nM.
For `CCNC(=O)c1cc2c(Oc3ncc(NC(=O)C4(C(=O)Nc5ccc(F)cc5)CC4)cc3F)ccnc2cc1OC` [Compound 23, 1-N′-[6-[6-(Ethylcarbamoyl)-7-methoxyquinolin-4-yl]oxy-5-fluoropyridin-3-yl]-1-N-(4-fluorophenyl)cyclopropane-1,1-dicarboxamide], the IC50 is 10 to 100 nM at AXL, 10 to 100 nM against Mer, over 300 nM on KDR and 10 to 100 nM at Met.
Turning to `CNC(=O)c1cc2c(Oc3ncc(NC(=O)C4(C(=O)Nc5ccc(F)cc5)CC4)cc3Cl)ccnc2cc1OCCO` [Compound 37, 1-N′-[5-Chloro-6-[7-(2-hydroxyethoxy)-6-(methylcarbamoyl)quinolin-4-yl]oxypyridin-3-yl]-1-N-(4-fluorophenyl)cyclopropane-1,1-dicarboxamide], the IC50 is 10 to 100 nM on AXL, 100 to 300 nM against Mer, over 300 nM against KDR and 10 to 100 nM at Met.
Turning to `NC(=O)c1cc2c(Oc3ncc(NC(=O)C4(C(=O)Nc5ccc(F)cc5)CC4)cc3Cl)ccnc2cc1OCCO` [Compound 38, 1-N′-[6-[6-Carbamoyl-7-(2-hydroxyethoxy)quinolin-4-yl]oxy-5-chloropyridin-3-yl]-1-N-(4-fluorophenyl)cyclopropane-1,1-dicarboxamide], the IC50 on AXL is 10 to 100 nM; on Mer, 10 to 100 nM; at KDR it was over 300 nM; at Met it was 10 to 100 nM.
In the case of `NC(=O)c1cc2c(Oc3ncc(NC(=O)C4(C(=O)Nc5ccc(F)cc5)CC4)cc3F)ccnc2cc1OCCO` [Compound 39, 1-N′-[6-[6-Carbamoyl-7-(2-hydroxyethoxy)quinolin-4-yl]oxy-5-fluoropyridin-3-yl]-1-N-(4-fluorophenyl)cyclopropane-1,1-dicarboxamide], the concentration for half-maximal inhibition (IC50) at AXL is 10 to 100 nM; at Mer it was 100 to 300 nM; at KDR, over 300 nM; at Met, 10 to 100 nM.
In the case of `CNC(=O)c1cc2c(Oc3ncc(NC(=O)C4(C(=O)Nc5ccc(F)cc5)CC4)cc3Cl)ccnc2cc1OCC(C)O` (stereo not shown) [Compound 50, 1-N′-[5-Chloro-6-[7-(2-hydroxypropoxy)-6-(methylcarbamoyl)-quinolin-4-yl]oxypyridin-3-yl]-1-N-(4-fluorophenyl)cyclopropane-1,1-dicarboxamide], the IC50 on AXL was 10 to 100 nM; at Mer, 10 to 100 nM; on KDR, over 300 nM; on Met it was 10 to 100 nM.
For `CC(O)COc1cc2nccc(Oc3ncc(NC(=O)C4(C(=O)Nc5ccc(F)cc5)CC4)cc3Cl)c2cc1C(N)=O` (stereo not shown) [Compound 51, 1-N′-[6-[6-Carbamoyl-7-(2-hydroxypropoxy)quinolin-4-yl]oxy-5-chloropyridin-3-yl]-1-N-(4-fluorophenyl)cyclopropane-1,1-dicarboxamide], the IC50 at AXL was 10 to 100 nM; at Mer, 10 to 100 nM; against KDR, over 300 nM; on Met it was 10 to 100 nM.
As to `COc1cc2nccc(Oc3ncc(NC(=O)C4(C(=O)Nc5ccc(F)cc5)CC4)cc3Cl)c2cc1-c1ncco1` [Compound 64, 1-N′-[5-Chloro-6-[7-methoxy-6-(1,3-oxazol-2-yl)quinolin-4-yl]oxypyridin-3-yl]-1-N-(4-fluorophenyl)cyclopropane-1,1-dicarboxamide], the IC50 on AXL was at most 10 nM; at Mer, 10 to 100 nM; against KDR, over 300 nM; on Met it was 10 to 100 nM.

Source of the values: US11673897B2, “Compounds for the treatment of kinase-dependent disorders” (Exelixis, Inc., priority 2018, dated 2023).
